Results taken from ChEMBL document CHEMBL4428082, “Aligning Potency and Pharmacokinetic Properties for Pyridine-Based NCINIs” (ACS Med Chem Lett, 2016).
Values after ≈ are worked out from the molar mass of the structure shown.

Legend:
[1] = Inhibition of HIV NL4.3 integrase N124/T125 double mutant assessed as reduction in viral replication by luciferase reporter gene assay; design: species or system Human immunodeficiency virus
[2] = Inhibition of HIV NL4.3 integrase T124/T125 double mutant assessed as reduction in viral replication by luciferase reporter gene assay; design: species or system Human immunodeficiency virus
[3] = system: Human immunodeficiency virus; assay: Ratio of EC50 for HIV1 NL4.3 integrase N124/T125 double mutant in presence of human serum to EC50 for HIV1 NL4.3 integrase N124/T125 double mutant in absence of human serum
[4] = Half life in human liver microsomes; assay type: ADME, Microsome
[5] = Volume of distribution at steady state in rat; assay type: ADME; conditions: in vivo, read-out: Vdss
[6] = Solubility of the compound at pH 6.8; assay type: physicochemical; conditions: buffer
[7] = Apparent permeability in human Caco2 cells; assay type: ADME, cell-based; conditions: Caco-2
[8] = Clearance in rat hepatocytes relative to hepatic blood flow; assay type: ADME, cell-based, Hepatocyte; conditions: read-out: CLH
[9] = Clearance in iv dosed rat relative to hepatic blood flow; assay type: ADME, organism-based; conditions: in vivo
[10] = Clearance in human hepatocytes relative to hepatic blood flow; assay type: ADME, cell-based, Hepatocyte; conditions: read-out: CLH
[11] = Total drug excretion in rat bile assessed as acyl glucuronide of parent compound at 3 hrs; assay type: ADME, tissue-based; conditions: in vivo
Cytochrome P450 2C9 = Cytochrome P450 2C9 (Homo sapiens, UniProt P11712); assay: Inhibition of CYP2C9 (unknown origin); assay type: ADME
Chain of Cytochrome P450 2C9 (P11712 whole entry): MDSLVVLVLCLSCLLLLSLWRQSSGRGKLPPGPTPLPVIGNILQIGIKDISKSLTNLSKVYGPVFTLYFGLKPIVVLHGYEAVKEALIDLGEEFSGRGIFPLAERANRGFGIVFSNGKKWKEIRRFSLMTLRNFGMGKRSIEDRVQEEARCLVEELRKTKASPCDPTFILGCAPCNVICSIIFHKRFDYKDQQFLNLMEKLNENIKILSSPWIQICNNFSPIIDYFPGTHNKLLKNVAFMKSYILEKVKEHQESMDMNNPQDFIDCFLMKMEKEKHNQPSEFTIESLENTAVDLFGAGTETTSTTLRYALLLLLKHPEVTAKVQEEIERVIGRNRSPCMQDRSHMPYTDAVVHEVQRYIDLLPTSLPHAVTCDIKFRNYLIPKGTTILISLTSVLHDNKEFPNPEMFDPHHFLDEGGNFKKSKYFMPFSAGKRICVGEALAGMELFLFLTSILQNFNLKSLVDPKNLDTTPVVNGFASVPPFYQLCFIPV

Cytochrome P450 1A2 = target: T1, Cytochrome P450 1A2 (Homo sapiens, UniProt P05177); assay: Inhibition of CYP1A2 (unknown origin); assay type: ADME
T1 sequence (P05177 whole entry): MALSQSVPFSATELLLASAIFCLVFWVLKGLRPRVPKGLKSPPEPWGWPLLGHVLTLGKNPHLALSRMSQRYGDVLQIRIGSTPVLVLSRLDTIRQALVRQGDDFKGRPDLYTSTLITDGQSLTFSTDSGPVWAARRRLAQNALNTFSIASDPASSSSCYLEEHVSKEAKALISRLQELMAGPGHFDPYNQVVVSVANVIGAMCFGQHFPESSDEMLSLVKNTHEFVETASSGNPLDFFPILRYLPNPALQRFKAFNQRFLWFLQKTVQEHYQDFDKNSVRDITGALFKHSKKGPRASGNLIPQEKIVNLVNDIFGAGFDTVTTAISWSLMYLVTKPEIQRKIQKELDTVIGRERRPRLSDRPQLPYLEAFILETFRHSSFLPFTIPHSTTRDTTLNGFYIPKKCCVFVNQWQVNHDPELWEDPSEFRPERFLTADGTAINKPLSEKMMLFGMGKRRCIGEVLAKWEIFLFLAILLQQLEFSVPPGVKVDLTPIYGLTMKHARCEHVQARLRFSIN

Cytochrome P450 2D6 = Cytochrome P450 2D6 (Homo sapiens, UniProt P10635); assay: Inhibition of CYP2D6 (unknown origin); assay type: ADME
Chain of Cytochrome P450 2D6 (P10635 whole entry): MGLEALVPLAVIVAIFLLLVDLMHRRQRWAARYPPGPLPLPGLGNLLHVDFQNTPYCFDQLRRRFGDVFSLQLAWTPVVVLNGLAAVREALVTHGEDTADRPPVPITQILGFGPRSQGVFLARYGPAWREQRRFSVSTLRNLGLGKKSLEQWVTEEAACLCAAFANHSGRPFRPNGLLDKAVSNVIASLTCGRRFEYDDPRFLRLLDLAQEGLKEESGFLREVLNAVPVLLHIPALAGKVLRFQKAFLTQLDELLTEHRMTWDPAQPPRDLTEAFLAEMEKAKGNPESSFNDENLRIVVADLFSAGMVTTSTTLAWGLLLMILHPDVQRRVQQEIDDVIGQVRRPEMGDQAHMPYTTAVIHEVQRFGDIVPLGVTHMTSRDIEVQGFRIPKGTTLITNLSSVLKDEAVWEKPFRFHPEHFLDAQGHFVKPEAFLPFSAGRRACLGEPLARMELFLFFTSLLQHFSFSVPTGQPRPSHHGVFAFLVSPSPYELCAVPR

[12] = Clearance in iv dosed dog relative to hepatic blood flow; assay type: ADME, organism-based, Canis lupus familiaris; conditions: in vivo
[13] = Inhibition of HIV NL4.3 integrase A124/A125 double mutant infected in PBMC assessed as reduction in viral replication by p24 ELISA; conditions: Human immunodeficiency virus 1, NL4.3
[14] = Half life in rat; assay type: ADME; conditions: in vivo
Cytochrome P450 2C19 = Cytochrome P450 2C19 (Homo sapiens, UniProt P33261); assay: Inhibition of CYP2C19 (unknown origin); assay type: ADME
Chain of Cytochrome P450 2C19 (P33261 whole entry): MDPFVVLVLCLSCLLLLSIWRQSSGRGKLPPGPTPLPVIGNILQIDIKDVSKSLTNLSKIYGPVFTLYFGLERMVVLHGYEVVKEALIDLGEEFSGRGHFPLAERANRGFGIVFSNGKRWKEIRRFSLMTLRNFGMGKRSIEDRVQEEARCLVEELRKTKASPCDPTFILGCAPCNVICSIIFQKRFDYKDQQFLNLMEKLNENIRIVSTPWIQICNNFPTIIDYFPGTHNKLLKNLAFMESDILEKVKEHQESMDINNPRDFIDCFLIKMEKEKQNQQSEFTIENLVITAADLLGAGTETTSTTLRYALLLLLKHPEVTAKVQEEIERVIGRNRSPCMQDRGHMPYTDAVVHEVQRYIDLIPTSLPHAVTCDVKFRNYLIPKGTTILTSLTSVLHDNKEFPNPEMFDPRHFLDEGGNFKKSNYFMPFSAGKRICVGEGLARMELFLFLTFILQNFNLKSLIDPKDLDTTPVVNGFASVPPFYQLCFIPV

[15] = Inhibition of HIV NL4.3 integrase N124/A125 double mutant infected in PBMC assessed as reduction in viral replication by p24 ELISA; conditions: Human immunodeficiency virus 1, NL4.3
[16] = Inhibition of HIV NL4.3 integrase A124/T125 double mutant infected in PBMC assessed as reduction in viral replication by p24 ELISA; conditions: Human immunodeficiency virus 1, NL4.3
[17] = Inhibition of HIV NL4.3 integrase T124/A125 double mutant infected in PBMC assessed as reduction in viral replication by p24 ELISA; conditions: Human immunodeficiency virus 1, NL4.3
[18] = Clearance in dog hepatocytes relative to hepatic blood flow; assay type: ADME, cell-based, Canis lupus familiaris, Hepatocyte; conditions: read-out: CLH
[19] = Clearance in iv dosed monkey relative to hepatic blood flow; assay type: ADME, organism-based, Macaca mulatta; conditions: rhesus monkey, in vivo
[20] = Inhibition of HIV NL4.3 integrase N124/T125 double mutant infected in PBMC assessed as reduction in viral replication by p24 ELISA; conditions: Human immunodeficiency virus 1, NL4.3
[21] = Half life in bile duct cannulated rat; assay type: ADME; conditions: in vivo
[22] = Inhibition of HIV NL4.3 integrase T124/T125 double mutant infected in PBMC assessed as reduction in viral replication by p24 ELISA; conditions: Human immunodeficiency virus 1, NL4.3
Cytochrome P450 3A4 = Cytochrome P450 3A4 (Homo sapiens, UniProt P08684); assay: Inhibition of CYP3A4 (unknown origin); assay type: ADME
Chain of Cytochrome P450 3A4 (P08684 whole entry): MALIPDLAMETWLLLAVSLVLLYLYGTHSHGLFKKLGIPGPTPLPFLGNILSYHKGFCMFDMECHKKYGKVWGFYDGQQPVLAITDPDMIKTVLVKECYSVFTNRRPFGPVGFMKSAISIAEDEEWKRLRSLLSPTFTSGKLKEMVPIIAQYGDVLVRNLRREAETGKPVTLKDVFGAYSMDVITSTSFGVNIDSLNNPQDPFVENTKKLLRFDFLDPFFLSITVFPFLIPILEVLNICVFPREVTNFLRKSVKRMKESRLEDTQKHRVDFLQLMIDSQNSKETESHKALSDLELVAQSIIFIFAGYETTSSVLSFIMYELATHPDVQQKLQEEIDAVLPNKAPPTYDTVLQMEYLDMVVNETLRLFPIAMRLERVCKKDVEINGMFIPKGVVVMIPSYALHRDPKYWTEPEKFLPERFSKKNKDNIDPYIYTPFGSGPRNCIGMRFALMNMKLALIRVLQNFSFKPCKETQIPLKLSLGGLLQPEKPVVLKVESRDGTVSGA

[23] = Clearance in monkey hepatocytes relative to hepatic blood flow; assay type: ADME, cell-based, Macaca mulatta, Hepatocyte; conditions: rhesus monkey, read-out: CLH
[24] = Clearance in rat relative to hepatic blood flow; assay type: ADME; conditions: in vivo

SMILES: Cc1nc(NC(=O)c2ccccc2)c(C)c(-c2ccc(Cl)cc2)c1[C@H](OC(C)(C)C)C(=O)O
- EC50 [1]: 1100 nM
- EC50 [2]: 15 nM

SMILES: Cc1nc(C(=O)Nc2ccccc2)c(C)c(-c2ccc(Cl)cc2)c1[C@H](OC(C)(C)C)C(=O)O
- EC50 [1]: 670 nM
- EC50 [2]: 12 nM

SMILES: Cc1nc(C(=O)N[C@H]2CC[C@H](C)CC2)c(C)c(-c2ccc3c4c(cccc24)CCO3)c1[C@H](OC(C)(C)C)C(=O)O
- Ratio EC50 [3]: 2.9
- EC50 [1]: > 2500 nM
- EC50 [2]: 16 nM
- half-life [4]: > 5 h

SMILES: Cc1nc(C(=O)NCc2ccccc2)c(C)c(-c2ccc3c(c2)CCCO3)c1[C@H](OC(C)(C)C)C(=O)O
- Ratio EC50 [3]: 23
- EC50 [1]: 200 nM
- EC50 [2]: 14 nM

SMILES: Cc1cccc(NC(=O)c2nc(C)c([C@H](OC(C)(C)C)C(=O)O)c(-c3ccc(Cl)cc3)c2C)c1
- EC50 [2]: 3.7 nM
- half-life [4]: > 5 h

SMILES: Cc1nc(C(=O)N[C@H]2CC[C@H](O)CC2)c(C)c(-c2ccc(Cl)cc2)c1[C@H](OC(C)(C)C)C(=O)O
- EC50 [2]: 930 nM
- half-life [4]: > 5 h

SMILES: Cc1nc(C(=O)N[C@H]2CC[C@H](C)CC2)c(C)c(-c2ccc3c(c2)NCCO3)c1[C@H](OC(C)(C)C)C(=O)O
- Ratio EC50 [3]: 2.1
- EC50 [1]: 280 nM
- EC50 [2]: 27 nM
- half-life [4]: > 5 h

SMILES: Cc1nc(-c2nc3ccccc3n2C)c(C)c(-c2ccc3c(c2C)N(C)CCO3)c1[C@H](OC(C)(C)C)C(=O)O
- Vd [5]: 1.6 L/kg
- Ratio EC50 [3]: 4.9
- solubility [6]: > 1000 µg/mL
- Papp [7]: 10.6 ×10⁻⁶ cm/s
- hepatic extraction ratio [8]: 0.19
- EC50 [1]: 59 nM
- CL [9]: 24%
- EC50 [2]: 3.3 nM
- half-life [4]: 3.25 h
- hepatic extraction ratio [10]: 0.24
- Drug excretion [11]: 70%

SMILES: Cc1nc(C(=O)N[C@H]2CC[C@H](C)CC2)c(C)c(-c2ccc3c(c2)N(C)CCO3)c1[C@H](OC(C)(C)C)C(=O)O
- Ratio EC50 [3]: 4.1
- EC50 [1]: 600 nM
- EC50 [2]: 6.8 nM
- half-life [4]: > 5 h

SMILES: Cc1nc(C(=O)N[C@H]2CC[C@H](C)CC2)c(C)c(-c2ccc3c(c2C)N(C)CCO3)c1[C@H](OC(C)(C)C)C(=O)O
- IC50 (Cytochrome P450 2C9): > 30000 nM
- IC50 (Cytochrome P450 1A2): > 30000 nM
- Vd [5]: 1.4 L/kg
- IC50 (Cytochrome P450 2D6): > 30000 nM
- Ratio EC50 [3]: 2.9
- solubility [6]: 930 µg/mL (≈ 1730 µM)
- CL [12]: 10%
- EC50 [13]: 0.9 nM
- half-life [14]: 1.3 h
- IC50 (Cytochrome P450 2C19): > 30000 nM
- Papp [7]: 39.8 ×10⁻⁶ cm/s
- EC50 [15]: 42 nM
- EC50 [16]: 0.6 nM
- EC50 [17]: 0.4 nM
- hepatic extraction ratio [8]: 0.07
- EC50 [1]: 170 nM
- CL [9]: 23%
- hepatic extraction ratio [18]: 0.31
- CL [19]: 30%
- EC50 [2]: 2.5 nM
- EC50 [20]: 27 nM
- half-life [4]: > 5 h
- half-life [21]: 1.3 h
- EC50 [22]: 0.5 nM
- IC50 (Cytochrome P450 3A4): > 30000 nM
- hepatic extraction ratio [10]: 0.17
- hepatic extraction ratio [23]: 0.31
- Drug excretion [11]: 20%

SMILES: Cc1nc(C(=O)NC(C)(C)C2CC2)c(C)c(-c2ccc(Cl)cc2)c1[C@H](OC(C)(C)C)C(=O)O
- Ratio EC50 [3]: 1.5
- EC50 [1]: 560 nM
- EC50 [2]: 4.4 nM
- half-life [4]: 3.63 h

SMILES: Cc1nc(C(=O)N[C@H]2CC[C@H](C)CC2)c(C)c(-c2ccc3c(c2)CCCO3)c1[C@H](OC(C)(C)C)C(=O)O
- Ratio EC50 [3]: 4.1
- EC50 [1]: 220 nM
- EC50 [2]: 4.2 nM
- half-life [4]: 0.817 h

SMILES: Cc1nc(C(=O)N[C@H]2CC[C@H](C)CC2)c(C)c(-c2ccc(Cl)cc2)c1[C@H](OC(C)(C)C)C(=O)O
- Ratio EC50 [3]: 3.7
- EC50 [1]: 570 nM
- EC50 [2]: 7.3 nM
- half-life [4]: 3.07 h

SMILES: Cc1nc2ccccc2c(-c2ccc3c4c(ccnc24)CCO3)c1[C@H](OC(C)(C)C)C(=O)O [BI-224436]
- CL [24]: 0.7%
- EC50 [1]: 30 nM
- EC50 [2]: 19 nM

SMILES: Cc1nc(NC(=O)c2ccccc2OC(F)(F)F)c(C)c(-c2ccc3c(c2)N(C)CCO3)c1[C@H](OC(C)(C)C)C(=O)O
- Ratio EC50 [3]: 3.4
- EC50 [1]: 220 nM
- EC50 [2]: 7.4 nM
- half-life [4]: > 5 h

SMILES: Cc1nc(-c2nc3ccc(F)cc3n2C)c(C)c(-c2ccc3c(c2C)N(C)CCO3)c1[C@H](OC(C)(C)C)C(=O)O
- Ratio EC50 [3]: 1.4
- EC50 [1]: 120 nM
- EC50 [2]: 3 nM
- half-life [4]: 1.58 h

SMILES: Cc1ccc2[nH]c(-c3nc(C)c([C@H](OC(C)(C)C)C(=O)O)c(-c4ccc(Cl)cc4)c3C)nc2c1
- Ratio EC50 [3]: 13
- EC50 [2]: 1.1 nM
- half-life [4]: 2.77 h

SMILES: Cc1ccc2nc(-c3nc(C)c([C@H](OC(C)(C)C)C(=O)O)c(-c4ccc5c(c4C)N(C)CCO5)c3C)n(C)c2c1
- Ratio EC50 [3]: 3.9
- EC50 [1]: 91 nM
- EC50 [2]: 3 nM
- half-life [4]: 1.58 h

SMILES: Cc1nc(C(=O)NC2CCN(C)CC2)c(C)c(-c2ccc(Cl)cc2)c1[C@H](OC(C)(C)C)C(=O)O
- EC50 [2]: 2200 nM

SMILES: Cc1nc(-c2nc3cccc(C)c3n2C)c(C)c(-c2ccc(Cl)cc2)c1[C@H](OC(C)(C)C)C(=O)O
- Ratio EC50 [3]: 3.2
- EC50 [2]: 3 nM
- half-life [4]: 2 h

SMILES: Cc1nc(NC(=O)c2ccccc2OC(F)(F)F)c(C)c(-c2ccc3c(c2C)N(C)CCO3)c1[C@H](OC(C)(C)C)C(=O)O
- Ratio EC50 [3]: 2.6
- EC50 [2]: 4.7 nM
- half-life [4]: > 5 h

SMILES: Cc1noc(C)c1-c1ccc(-c2nc(C)c([C@H](OC(C)(C)C)C(=O)O)c(-c3ccc(Cl)cc3)c2C)cc1
- CL [24]: 0.6%
- EC50 [1]: 810 nM
- EC50 [2]: 7.7 nM

SMILES: Cc1nc(C(=O)N[C@H]2CC[C@H](C)CC2)c(C)c(-c2ccc3c(c2C)NCCO3)c1[C@H](OC(C)(C)C)C(=O)O
- Ratio EC50 [3]: 3
- EC50 [1]: 130 nM
- EC50 [2]: 7.5 nM
- half-life [4]: 3.12 h

SMILES: Cc1nc(-c2cn(-c3ccccc3)nn2)c(C)c(-c2ccc3c(c2)CCCO3)c1[C@H](OC(C)(C)C)C(=O)O
- Ratio EC50 [3]: 17
- EC50 [1]: 310 nM
- EC50 [2]: 4.7 nM

SMILES: Cc1noc(C)c1-c1ccc(-c2nc(C)c([C@H](OC(C)(C)C)C(=O)O)c(-c3ccc4c(c3)CCCO4)c2C)cc1
- Ratio EC50 [3]: 7.8
- EC50 [1]: 390 nM
- EC50 [2]: 5.5 nM
